From US10028911B2, “Sustained release formulation of methotrexate as a disease-modifying antirheumatic drug (DMARD) and an anti-cancer agent” (PACIRA PHARMACEUTICALS, INC., priority 2010, dated 2018)
Read-outs that look alike come from different tables or passages of the source.

How the values were obtained:
[1] = Pharmacokinetic (PK) study in rats, subcutaneous injection, serum MTX by HPLC; type: in vivo, Male Sprague Dawley rats; details: rat
Description: A pharmacokinetic (PK) study was performed in rats, comparing MTX solution control against four different formulations of MVL-encapsulated MTX at a dose level of 10 mg/kg. Male Sprague Dawley rats weighing 280-320 g received subcutaneous injections of either MTX solution or one of the MVL-encapsulated MTX formulations. The injections were made on the left lateral hind limb of each rat using 1 mL syringes fitted with 25G needles. Each treatment group contained 3 rats. Appropriate dilutions with sterile saline solution were performed to provide a dose of 10 mg/kg of MTX per rat, assuming an average rat weight of 300 g (final injection volume of 200 uL). Rats were ordered by pre-dose weight and then randomized into the different treatment groups.
Serum MTX analysis was performed to measure MTX in serum using a liquid-liquid extraction (LLE) HPLC method performed by an Agilent 1200 Series system produced by Agilent Technologies headquartered in Santa Clara, Calif. A 100 μL volume of rat serum was mixed with 300 μL of acetonitrile solution containing 1.1% formic acid (w/v) in a 1.5-mL Eppendorf tube. The deproteinization was carried out by vortexing for 1 minute, followed by centrifugation at 13,000 g for 5 minutes. The entire supernatant was transferred into a 1.5-mL microcentrifuge tube with screw cap. Acetonitrile was cleaned out by mixing 500 μL of chloroform with the supernatant. The tube was vortexed for 1 minute and then centrifuged at 13,000 g for 3 minutes. A 40 μL volume of the top aqueous portion was collected into a 100-μL vial insert for HPLC sample injection.
The HPLC system was equipped with a detector set at 302 nm and a 2.1-mm×250-mm Supelcosil LC-18-S with 5-μm particle size column. The mobile phase consisted of 102 mM sodium phosphate (dibasic), 32.5 mM citric acid, and 10% (v/v) acetonitrile (pH˜6.0). The flow rate was 0.6 mL/min, column temperature 35° C., and injection volume 20 μL. An MTX standard curve was prepared by spiking 6 different concentrations of MTX (22.7-727.1 ng/mL) into MTX-free rat serum. The MTX in each spiked standard was extracted using the same sample preparation method above.
Additional PK studies on Formulations 1 and 2 were performed as above, including some at reduced doses of MTX. The PK parameters from these studies are summarized below. […] The Cavg is the average plasma concentration over the 7 day time period.

[2] = cited from earlier work

time to drop below LOQ in plasma ([1]; 10 mg/kg, FIG. 1): ≤ 24 h
AUC/Dose ([1]; MTX dose 10 mg/kg): 1.55 µmol·h/L/mg/kg
Cmax ([1]; MTX dose 10 mg/kg): 14.4 µM
tmax ([1]; MTX dose 10 mg/kg): 0.5 h
SMILES: CN(Cc1cnc2nc(N)nc(N)c2n1)c1ccc(C(=O)N[C@@H](CCC(=O)O)C(=O)O)cc1 [MTX Solution, methotrexate]
standard AUC ([2]; oral immediate release dosage forms (Hoekstra et al. 2004)): 2466 mcg/L-hr
t1/2 ([2]; orally administered): 8 to 10 h
tmax ([2]; orally administered): 1 to 3 h
